Results from paper PMC9317670, “Temporal and Wash-Out Studies Identify Medicines for Malaria Venture Pathogen Box Compounds with Fast-Acting Activity against Both Trypanosoma cruzi and Trypanosoma brucei” (Microorganisms, 2022).
Like-named read-outs stand apart in the source and are kept apart here.

Assays:
[1] = test system: T. cruzi Tulahuen strain parasites in 3T3 host cells; test: T. cruzi 48 h image-based assay; assay type: cell-based, Trypanosoma cruzi
[2] = test system: T. cruzi Tulahuen strain parasites in 3T3 host cells; design: method as in PMID 28674055; conditions: liquid stocks; ref [16]; read-out: IC50 T. cruzi in the previous studies; cited from earlier work
T.b. brucei [3] = test system: T.b. brucei; design: method as in PMID 26258172; conditions: ref [53]; read-out: IC50 T.b. brucei, previously reported; cited from earlier work
T. cruzi [4] = test system: T. cruzi; design: method as in PMID 25583723; conditions: 96 h; ref [54]; read-out: IC50 T. cruzi following 96 h incubation; cited from earlier work
[5] = test system: T.b. brucei bloodstream 427 strain parasites; test: T.b. brucei 72 h REDOX-based (resazurin) viability assay; assay type: cell-based, Trypanosoma brucei brucei
HEPG2 cells = test: HEPG2 cytotoxicity assay; assay type: cell-based, human
T. cruzi [6] = test: T. cruzi temporal image-based assay, 24 h exposure; assay type: cell-based, Trypanosoma cruzi; conditions: for IC50: read-out: IC50 24 h T. cruzi
T. cruzi [7] = test: T. cruzi compound wash off assay (48 h with compound, wash off, 72 h without); assay type: cell-based, Trypanosoma cruzi; conditions: for Fold Change of IC50, wash off vs 48 h: IC50 from 48 h incubation to IC50 following wash off and further 72 h; for IC50: read-out: IC50 Wash Off
T.b. brucei [8] = test: T.b. brucei temporal viability (time-kill) assay, 24 h, PrestoBlue; assay type: cell-based, Trypanosoma brucei brucei; conditions: for IC50: read-out: IC50 24 h T.b. brucei
Method: Time-kill assays was undertaken as previously described, using the REDOX reagent PrestoBlue® [24]. […] Control compounds were added at the same concentrations at outlined for the resazurin-based assays.

T.b. brucei [9] = test: T.b. brucei temporal viability (time-kill) assay, 48 h, PrestoBlue; assay type: cell-based, Trypanosoma brucei brucei; conditions: for IC50: read-out: IC50 48 h T.b. brucei
T.b. rhodesiense STIB900 = T.b. rhodesiense STIB900 assay, 72 h; assay type: cell-based; conditions: Trypanosoma brucei; STIB900, 72 h; unit inferred; read-out: IC50 T. bR (T.b. rhodesiense)
T.b. gambiense STIB930 = T.b. gambiense STIB930 assay, 72 h; assay type: cell-based; conditions: Trypanosoma brucei, unit inferred, read-out: IC50 T. Bg STIB930 (T.b. gambiense)
T. cruzi and T.b. brucei = test: Speed of action and cidality classification from temporal and wash off assays; assay type: cell-based, Trypanosoma cruzi, Trypanosoma brucei brucei; conditions: for Speed of Action (FA/SA): TC = T. cruzi, TBB = T.b. brucei; for Speed of Action (Table 5): prioritised compounds, Fast/Slow
HEK293 cells = test: HEK293 cytotoxicity assay; assay type: cell-based, human; conditions: HEK293, 72 h; NA = not active; highest dose 79 µM unless given
[10] = test system: bovine peripheral blood mononuclear cells (PBMCs); design: method as in PMID 30771616; conditions: 24 h incubation; ref [55]; read-out: IC50 against bovine PBMCs; cited from earlier work
[11] = biological target: T. cruzi recombinant CYP51 (TcCYP51) (Trypanosoma cruzi, UniProt Q7Z1V1); test: biochemical; conditions: for Inhibition of TcCYP51 (in words): criterion: IC50 within a log difference to posaconazole
Method: The inhibitory properties of compounds against T. cruzi recombinant CYP51 (TcCYP51) was determined using an in vitro assay as previously described [33, 41]. Compounds which inhibited T. cruzi in an image-based assay were tested against TcCYP51 in log concentrations (100, 33, 10, 3.3, 1.0, 0.33, 0.1 and 0 µM), with one replicate per dose, as previously described [41]. The control compound posaconazole was incubated at the same concentrations as the test compounds, over two replicates.
Of the fast-acting compounds, if there was more than one compound with activity against T. cruzi, one representative compound from each chemical class was selected. […] Slow-acting compounds were also tested for activity against TcCYP51. The criteria defining a compound with TcCYP51 activity required that the IC50 value was within a log difference to posaconazole, as previously reported [33].

[12] = cited from earlier work
CYP1A2 = test system: CYP1A2; design: method as in earlier work; conditions: Pathogen Box in vitro DMPK data; ref [10]; cited from earlier work
T. cruzi [13] = test system: T. cruzi; design: method as in PMID 29016289; conditions: treated for 40 days; ref [4]; cited from earlier work
[14] = Trypanosoma cruzi, TULAHUEN, 48 h, read-out: IC50 (T. cruzi)
[15] = selectivity index in relation to 3T3 host cells; highest dose 3T3 73 µM
[16] = selectivity index in relation to HEK293 cells
[17] = selectivity index in relation to HEPG2 cells
[18] = Trypanosoma cruzi, TULAHUEN, 48 h; read-out: Emax % (T. cruzi) (converted)
[19] = Trypanosoma cruzi, TULAHUEN, 48 h; read-out: IC50 (T. cruzi)
[20] = Trypanosoma cruzi, NA = not active at given concentration
[21] = Trypanosoma cruzi, T. cruzi, 48 h incubation, wash off, further 72 h
[22] = Trypanosoma brucei, read-out: Emax 24 h T.b. brucei (converted)
[23] = Trypanosoma brucei, read-out: Emax 48 h T.b. brucei (converted)
[24] = in vivo, species not stated, ref [10]

Sequence of T. cruzi recombinant CYP51 (TcCYP51) (Q7Z1V1 whole entry): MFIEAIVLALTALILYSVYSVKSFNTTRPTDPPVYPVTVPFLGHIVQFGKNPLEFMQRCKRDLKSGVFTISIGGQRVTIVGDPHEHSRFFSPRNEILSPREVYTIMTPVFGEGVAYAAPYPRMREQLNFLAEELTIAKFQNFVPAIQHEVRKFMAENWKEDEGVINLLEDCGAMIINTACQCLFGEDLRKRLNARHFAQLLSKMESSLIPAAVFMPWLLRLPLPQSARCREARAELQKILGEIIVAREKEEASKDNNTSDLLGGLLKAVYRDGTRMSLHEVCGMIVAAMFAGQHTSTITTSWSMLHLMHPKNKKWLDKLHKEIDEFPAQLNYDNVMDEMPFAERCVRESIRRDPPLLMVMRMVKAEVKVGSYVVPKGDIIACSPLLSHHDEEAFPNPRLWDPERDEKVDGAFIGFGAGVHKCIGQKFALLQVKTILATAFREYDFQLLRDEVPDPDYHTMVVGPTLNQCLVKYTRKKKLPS

Row | Compound | Emax ([5]; Trypanosoma brucei, 72 h) [%] | IC50 ([5]; Trypanosoma brucei, 72 h) [µM] | SI (T. cruzi) 3T3 [1, 15] | SI (T. cruzi) HEK [1, 16] | SI (T. cruzi) (HEP) [1, 17] | Fold Change of IC50, wash off vs 48 h (T. cruzi [7]; T. cruzi) [fold] | IC50 (T.b. brucei [8]; Trypanosoma brucei) [µM] | IC50 (T.b. brucei [9]; Trypanosoma brucei) [µM] | IC50 (T.b. rhodesiense STIB900) [µM] | IC50 (T.b. gambiense STIB930) [µM] | Speed of Action (FA/SA) (T. cruzi and T.b. brucei) | Speed of Action (Table 5) (T. cruzi and T.b. brucei) | SI (T.b. brucei) HEK [5, 16] | SI (T.b. brucei) (HEP) [5, 17] | Emax [1, 18] [%] | IC50 [1, 19] [µM] | Emax (T. cruzi [6]; Trypanosoma cruzi) [%] | IC50 (T. cruzi [6]; [20]) [µM] | IC50 (T. cruzi [7]; [21]) [µM] | Emax (T.b. brucei [8]; [22]) [%] | further results
1 | CC(C)=CCC/C(C)=C/CNCCNC1C2CC3CC(C2)CC1C3 (centres unmarked) [MMV687273] | – | – | – | – | – | – | – | – | – | – | – | – | – | – | – | – | – | – | – | – | IC50 [1, 14]: 13 µM; IC50 [2]: 5.4 µM; IC50 (T.b. brucei [3]): 5 µM; IC50 (T. cruzi [4]): 0.5 to 1 µM
2 | Nc1nc2ccc(-c3cncc(Oc4ccc(F)cc4)c3)cc2[nH]1 [MMV 687248] | 99 | 0.51 ± 0.045 | >49 | 53 | 13 | 1.3 | 0.93 ± 0.047 | 0.2 ± 0.032 | 1.2 ± 0.54 | 0.24 ± 0.022 | FA (Fast-acting (FA) = IC50 value can be determined following 24 h incubation, <10-fold difference in the IC50 value from 24 to 72 h) | Fast | – | – | – | – | – | – | – | – | SI (T.b. brucei) (HEP) [5]: 38; SI (T.b. brucei) HEK [5]: > 155; Emax ([1]; Trypanosoma cruzi, TULAHUEN, 48 h, read-out: Emax % (T. cruzi)): 99%; IC50 [1, 14]: 1.5 ± 0.13 µM; IC50 (HEPG2 cells; Homo sapiens, HepG2, 72 h, read-out: IC50 (HEP)): 19.6 µM; IC50 (T. cruzi [6]; Trypanosoma cruzi): 4.1 ± 1.3 µM; IC50 (T. cruzi [7]; Trypanosoma cruzi): 2 ± 0.039 µM; Emax (T.b. brucei [8]; Trypanosoma brucei, read-out: Emax 24 h T.b. brucei): 87%; Emax (T.b. brucei [9]; Trypanosoma brucei, read-out: Emax 48 h T.b. brucei): 99%
3 | O=C(Nc1ccc(F)c(-c2nc3ncc(-c4ccccc4)cc3[nH]2)c1)N1CCCC1 [MMV 688372] | – | – | – | – | – | – | – | – | – | – | SA (TC) | Slow | – | – | – | – | – | – | – | – | Emax % (T.b. brucei) ([5]; 72 h): 99%; IC50 ([5]; 72 h): 0.014 ± 0.0024 µM; Emax % (T. cruzi) ([1]; 48 h): 99%; Emax % (T. cruzi) ([1]; 48 h; listed as MMV688372): > 95%; IC50 ([1]; 48 h; read-out: IC50 (T. cruzi)): 0.13 ± 0.0097 µM; IC50 (HEK293 cells): 1.8 ± 0.0502 µM; IC50 (HEPG2 cells; HEPG2, 72 h, NA = not active, highest dose 79 µM unless given, read-out: IC50 (HEP) (converted)): 3.6 µM; Emax 24 h T. cruzi (T. cruzi [6]): 75%; IC50 (T. cruzi [6]; NA = not active at given concentration): 1.6 ± 0.064 µM; IC50 (T. cruzi [7]; T. cruzi, 48 h incubation, wash off, further 72 h): 0.13 ± 0.0029 µM; Emax 24 h T.b. brucei (T.b. brucei [8]): 83%; IC50 (T.b. brucei [8]): 0.034 ± 0.002 µM; Emax 48 h T.b. brucei (T.b. brucei [9]): 100%; IC50 (T.b. brucei [9]): 0.013 ± 0.00032 µM; IC50 [10]: 5.3 µM
4 | CCc1ccccc1-n1c(C)cn2c3c(=O)n(C(C(=O)OC)C(C)C)c(=O)n(C)c3nc12 (centres unmarked) [MMV 688550] | 99 | 0.025 ± 0.00083 | >138 | >149 (>149) | >149 (>149) | 0.58 | 0.022 ± 0.014 | 0.021 ± 0.00053 | 0.08 ± 0.0014 | < 0.001 | FA (Fast-acting (FA) = IC50 value can be determined following 24 h incubation, <10-fold difference in the IC50 value from 24 to 72 h) | Fast | >3160 (>3160) | >3160 (>3160) | 100 | 0.53 ± 0.11 | 80 | 0.9 ± 0.17 | 0.31 ± 0.067 | 100 | Emax (T.b. brucei [9]; [23]): 99%; Inhibition of TcCYP51 (in words) [11]: did not display activity
5 | O=C(NCCc1ccn(-c2ccccc2)n1)C1CCCCC1 [MMV 688795] | 99 | 0.13 ± 0.052 | >126 | >136 (>136) | >136 (>136) | 0.74 | 0.29 ± 0.0047 | 0.106 ± 0.02 | 0.079 ± 0.0007 | 0.63 ± 0.0014 | FA (Fast-acting (FA) = IC50 value can be determined following 24 h incubation, <10-fold difference in the IC50 value from 24 to 72 h) | Fast | >608 (>608) | >608 (>608) | 100 | 0.58 ± 0.0503 | 89 | 1.3 ± 0.12 | 0.38 ± 0.056 | 99 | Emax (T.b. brucei [9]; [23]): 99%
6 | O=C(NCc1nnc2n1CCCCC2)c1ccc(-c2ccc(F)cc2)o1 [MMV 688796] | 99 | 0.12 ± 0.023 | >61 | >66 (>66) | >66 (>66) | 1.1 | 0.24 ± 0.053 | 0.097 ± 0.0048 | 0.046 ± 0.031 | 0.16 ± 0.011 | FA (Fast-acting (FA) = IC50 value can be determined following 24 h incubation, <10-fold difference in the IC50 value from 24 to 72 h) | Fast | >658 (>658) | >658 (>658) | 100 | 1.2 ± 0.4 | 91 | 2.4 ± 1.3 | 1.1 ± 0.48 | 82 | Emax (T. cruzi [7]; [21]): 98%; Emax (T.b. brucei [9]; [23]): 100%; Half-life ([12]; dosed orally in mice, ref [51]): 3.9 h
7 | Cc1ccc(S(=O)(=O)Nc2ccc(CN3CCN(C(=O)c4cccc(C#N)c4)CC3)cc2)cc1 [MMV 689028] | 99 | 0.12 ± 0.03 | >104 | >113 (>113) | >113 (>113) | 0.86 | 0.72 ± 0.38 | 0.11 ± 0.0032 | 0.28 ± 0.011 | 0.048 ± 0.0011 | FA (Fast-acting (FA) = IC50 value can be determined following 24 h incubation, <10-fold difference in the IC50 value from 24 to 72 h) | Fast | >658 (>658) | >658 (>658) | 100 | 0.7 ± 0.13 | 91 | 1.1 ± 0.43 | 0.39 ± 0.02 | 78 | IC50 HEK (HEK293 cells): no activity; IC50 (HEP) (HEPG2 cells; HEPG2, 72 h, NA = not active, highest dose 79 µM unless given): no activity; Emax (T. cruzi [7]; [21]): 99%; Emax (T.b. brucei [9]; [23]): 99%; Inhibition of TcCYP51 (in words) [11]: nor exhibited TcCYP51 activity; Half-life [12, 24]: 6.8 h; CYP1A2 induction (CYP1A2): induced CYP1A2 activity
8 | COc1ccc(S(=O)(=O)Nc2ccc(CN3CCN(C(=O)c4cccc(C#N)c4)CC3)cc2)cc1 [MMV 689029] | 99 | 0.42 ± 0.053 | >61 | >66 (>66) | >66 (>66) | 0.73 | 0.98 ± 0.34 | 0.4 ± 0.023 | 0.63 ± 0.11 | 0.4 ± 0.12 | FA (Fast-acting (FA) = IC50 value can be determined following 24 h incubation, <10-fold difference in the IC50 value from 24 to 72 h) | Fast | >188 (>188) | >188 (>188) | 100 | 1.2 ± 0.067 | 90 | 3.7 ± 0.26 | 0.88 ± 0.056 | 89 | Emax (T. cruzi [7]; [21]): 98%; Emax (T.b. brucei [9]; [23]): 100%; IC50 ([11]; top concentration 100 µM): > 100 µM; Half-life [12, 24]: 2.4 h; CYP1A2 induction (CYP1A2): induced CYP1A2 activity
9 | CC1(C)OB(O)c2cc(NC(=O)c3ccc(F)cc3C(F)(F)F)ccc21 [SCYX-7158] | – | – | – | – | – | – | – | – | – | – | – | – | – | – | – | – | – | – | – | – | Cure of mice infected with T. cruzi (T. cruzi [13]): 100%
